Measured values as given in ChEMBL document CHEMBL5335830, “Unusual Sesquiterpenes from Streptomyces olindensis DAUFPE 5622” (J Nat Prod, 2024).
Calls of active or inactive are those of the source.

Key:
[1] = test system: Colon adenocarcinoma cell line; experiment: Cytotoxicity against human Colon adenocarcinoma cells; type: functional, cell-based
[2] = test system: Escherichia coli; experiment: Antimicrobial activity against Escherichia coli; type: functional, organism-based
[3] = test system: Bacillus subtilis; experiment: Antimicrobial activity against Bacillus subtilis; type: functional, organism-based
[4] = test system: Candida albicans; experiment: Antifungal activity against Candida albicans; type: functional, organism-based

Measured: Activity

CC1=CC(=O)C[C@H]2[C@@H](C)[C@@](C)(CO)CC[C@]12C
inactive: all assays above
